Data on three molecules can be found in patent US20090036474A1, “Quinazoline derivatives for use against cancer” (priority 2004, published 2009).

A word on the IC50: it is the concentration needed to halve the response being measured.

One assay deals with T1, PDGFRβ tyrosine kinase (Homo sapiens, UniProt P09619).
T1 construct: PDGFRα, PDGFRβ and KDR receptor cytoplasmic domains, obtained by expression of recombinant protein in insect cells; purchased Upstate Biotechnology Inc. 14-463; host or cells: Sf9 insect cells
Briefly: In vitro enzyme assay (ELISA), Test (a), PDGFRβ. The class given is biochemical. The conditions noted are these: ATP 2.8 μM, read-out: IC50 versus PDGFRβ tyrosine kinase. As for the experimental part: (§1) The ability of test compounds to inhibit the phosphorylation of a tyrosine containing polypeptide substrate by the tyrosine kinase enzymes PDGFRα, PDGFRβ and KDR was assessed using conventional ELISA assays. DNA encoding the PDGFRα, PDGFRβ or KDR receptor cytoplasmic domains may be obtained by total gene synthesis (International Biotechnology Lab., 1987, 5(3), 19-25) or by cloning. The DNA fragments may be expressed in a suitable expression system to obtain polypeptide with tyrosine kinase activity. For example, PDGFRα, PDGFRβ and KDR receptor cytoplasmic domains, obtained by expression of recombinant protein in insect cells, can be shown to display intrinsic tyrosine kinase activity. In the case of the VEGF receptor KDR (Genbank Accession No. L04947), a DNA fragment encoding most of the cytoplasmic domain, commencing with methionine 806 and including the termination codon may be cloned into a baculovirus transplacement vector [for example pAcYM1 (see The Baculovirus Expression System: A Laboratory Guide, L. A. King and R. D. Possee, Chapman and Hall, 1992) or pAc360 or pBlueBacHis (available from Invitrogen Corporation)]. This recombinant construct may be co-transfected into insect cells [for example Spodoptera frugiperda 21(Sf21) or Spodoptera frugiperda 9(Sf9)] with viral DNA (for example Pharmingen BaculoGold) to prepare recombinant baculovirus. […]

A further assay addresses T2, PDGFRα tyrosine kinase (Homo sapiens, UniProt P16234).
T2 construct: PDGFRα, PDGFRβ and KDR receptor cytoplasmic domains, obtained by expression of recombinant protein in insect cells; purchased Upstate Biotechnology Inc. 14-467; host or cells: Sf9 insect cells
Description: In vitro enzyme assay (ELISA), Test (a), PDGFRα. The class given is biochemical. The conditions noted are these: ATP 14 μM, read-out: IC50 versus PDGFRα tyrosine kinase. Here is the method: as §1
On the technique in general: An ELISA detects its analyte on a solid surface through an enzyme-linked reagent.

The target in another assay is T3, KDR tyrosine kinase (Homo sapiens, UniProt P35968).
T3 construct: a DNA fragment encoding most of the cytoplasmic domain, commencing with methionine 806 and including the termination codon; made in house; host or cells: Sf9 insect cells (recombinant baculovirus)
Briefly: In vitro enzyme assay (ELISA), Test (a), KDR. Type of assay: biochemical. The conditions noted are these: ATP 8 μM, read-out: IC50 versus KDR tyrosine kinase. As for the experimental part:
The ability of test compounds to inhibit the phosphorylation of a tyrosine containing polypeptide substrate by the tyrosine kinase enzymes PDGFRα, PDGFRβ and KDR was assessed using conventional ELISA assays. DNA encoding the PDGFRα, PDGFRβ or KDR receptor cytoplasmic domains may be obtained by total gene synthesis (International Biotechnology Lab., 1987, 5(3), 19-25) or by cloning. The DNA fragments may be expressed in a suitable expression system to obtain polypeptide with tyrosine kinase activity. For example, PDGFRα, PDGFRβ and KDR receptor cytoplasmic domains, obtained by expression of recombinant protein in insect cells, can be shown to display intrinsic tyrosine kinase activity. In the case of the VEGF receptor KDR (Genbank Accession No. L04947), a DNA fragment encoding most of the cytoplasmic domain, commencing with methionine 806 and including the termination codon may be cloned into a baculovirus transplacement vector [for example pAcYM1 (see The Baculovirus Expression System: A Laboratory Guide, L. A. King and R. D. Possee, Chapman and Hall, 1992) or pAc360 or pBlueBacHis (available from Invitrogen Corporation)]. This recombinant construct may be co-transfected into insect cells [for example Spodoptera frugiperda 21(Sf21) or Spodoptera frugiperda 9(Sf9)] with viral DNA (for example Pharmingen BaculoGold) to prepare recombinant baculovirus. Details of the methods for the assembly of recombinant DNA molecules and the preparation and use of recombinant baculovirus can be found in standard texts, for example Sambrook et al., 1989, Molecular cloning—A Laboratory Manual, 2nd edition, Cold Spring Harbour Laboratory Press and O'Reilly et al., 1992, Baculovirus Expression Vectors—A Laboratory Manual, W. H. Freeman and Co, New York).
For expression, Sf9 cells were infected with plaque-pure KDR recombinant virus and harvested 48 hours later. […]

For another assay, the target named is T4, phospho-Tyr751 PDGFRβ (Homo sapiens, UniProt P09619).
T4 construct: phosphorylation of PDGFR expressed on MG63 osteosarcoma cells; endogenous in cells; host or cells: MG63 osteosarcoma cells
Description: In vitro phospho-Tyr751 PDGFRβ ELISA assay in MG63 osteosarcoma cells, Test (b). Type of assay: cell-based. The conditions noted are these: MG63 cells stimulated with PDGFBB, read-out: IC50 versus phospho-Tyr751 PDGFRβ. Here is the method:
This assay uses a conventional ELISA method to determine the ability of test compounds to inhibit phosphorylation of tyrosine in PDGFRβ.
An MG63 osteosarcoma cell line [American Type Culture Collection (ATCC) CCL 1427] was routinely maintained at 37° C. with 7.5% CO2 in Dulbecco's modified Eagle's growth medium (DMEM; Sigma-Aldrich; Catalogue No. D6546) containing 10% foetal calf serum (FCS; Sigma-Aldrich; Catalogue No. F7524) and 2 mM L-glutamine (Invitrogen Ltd., Paisley, UK; Catalogue No. 25030-024).
For the assay, the cells were detached from the culture flask using a trypsin/ethylenediaminetetraacetic acid (EDTA) mixture (Invitrogen Ltd.; Catalogue No. 15400-054) and resuspended in test media comprising DMEM without phenol red (Sigma-1-Aldrich; Catalogue No. D5921) containing 1% charcoal-stripped-foetal calf serum (FCS) (Sigma-Aldrich; Catalogue No. F7524, stripped by incubation with dextran-coated activated charcoal at 55° C. for 30 minutes with continuous stirring followed by removal of the charcoal by centrifugation and filter sterilisation) and 2 mM L-glutamine (Invitrogen Ltd., Catalogue No. 25030-024) to give 6×10^4 cells per ml. […]

The subject of assay [1] is dermatofibrosarcoma protruberans cell cultures. The conditions noted are these: Cancer Research 2001; cited from earlier work.
Assay [2] concerns human glioblastoma lines U343 and U87. The conditions noted are these: U343 and U87 injected into the brains of nude mice; Cancer Research 2000; cited from earlier work.
Another assay relates to PDGF receptor kinase. The conditions noted are these: Nature Reviews 2002; Cancer Research 1996; cited from earlier work.

T3 sequence (P35968 786-1356 limits assumed): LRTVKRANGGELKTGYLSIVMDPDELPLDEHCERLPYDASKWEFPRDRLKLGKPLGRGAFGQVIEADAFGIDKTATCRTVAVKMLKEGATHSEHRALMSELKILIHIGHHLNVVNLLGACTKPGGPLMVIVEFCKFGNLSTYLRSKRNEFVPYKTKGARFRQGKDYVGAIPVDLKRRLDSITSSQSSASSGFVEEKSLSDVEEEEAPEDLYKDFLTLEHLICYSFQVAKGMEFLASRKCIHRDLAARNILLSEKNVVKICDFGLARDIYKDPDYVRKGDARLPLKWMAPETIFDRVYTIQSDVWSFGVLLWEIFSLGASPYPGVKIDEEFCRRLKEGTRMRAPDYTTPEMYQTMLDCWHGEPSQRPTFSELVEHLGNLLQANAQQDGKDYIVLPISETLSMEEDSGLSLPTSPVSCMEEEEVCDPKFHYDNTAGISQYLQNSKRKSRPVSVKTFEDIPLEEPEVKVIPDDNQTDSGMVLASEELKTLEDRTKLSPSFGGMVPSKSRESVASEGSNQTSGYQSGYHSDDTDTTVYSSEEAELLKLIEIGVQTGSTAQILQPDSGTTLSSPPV
T2 sequence (P16234 550-1089 limits assumed): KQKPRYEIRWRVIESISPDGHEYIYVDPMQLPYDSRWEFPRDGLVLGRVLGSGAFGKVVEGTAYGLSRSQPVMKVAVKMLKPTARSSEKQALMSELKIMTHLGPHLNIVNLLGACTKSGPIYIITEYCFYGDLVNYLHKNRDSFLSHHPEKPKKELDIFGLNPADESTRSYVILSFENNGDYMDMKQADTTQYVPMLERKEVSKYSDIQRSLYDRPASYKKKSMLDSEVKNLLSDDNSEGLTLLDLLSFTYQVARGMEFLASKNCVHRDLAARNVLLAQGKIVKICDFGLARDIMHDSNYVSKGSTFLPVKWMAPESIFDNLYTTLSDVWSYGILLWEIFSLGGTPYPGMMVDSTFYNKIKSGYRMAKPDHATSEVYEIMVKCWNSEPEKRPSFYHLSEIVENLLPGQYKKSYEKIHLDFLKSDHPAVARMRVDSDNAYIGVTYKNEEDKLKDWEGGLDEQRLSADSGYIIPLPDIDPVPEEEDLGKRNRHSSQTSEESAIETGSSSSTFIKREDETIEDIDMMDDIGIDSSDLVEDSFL
T4 sequence (P09619 33-1106): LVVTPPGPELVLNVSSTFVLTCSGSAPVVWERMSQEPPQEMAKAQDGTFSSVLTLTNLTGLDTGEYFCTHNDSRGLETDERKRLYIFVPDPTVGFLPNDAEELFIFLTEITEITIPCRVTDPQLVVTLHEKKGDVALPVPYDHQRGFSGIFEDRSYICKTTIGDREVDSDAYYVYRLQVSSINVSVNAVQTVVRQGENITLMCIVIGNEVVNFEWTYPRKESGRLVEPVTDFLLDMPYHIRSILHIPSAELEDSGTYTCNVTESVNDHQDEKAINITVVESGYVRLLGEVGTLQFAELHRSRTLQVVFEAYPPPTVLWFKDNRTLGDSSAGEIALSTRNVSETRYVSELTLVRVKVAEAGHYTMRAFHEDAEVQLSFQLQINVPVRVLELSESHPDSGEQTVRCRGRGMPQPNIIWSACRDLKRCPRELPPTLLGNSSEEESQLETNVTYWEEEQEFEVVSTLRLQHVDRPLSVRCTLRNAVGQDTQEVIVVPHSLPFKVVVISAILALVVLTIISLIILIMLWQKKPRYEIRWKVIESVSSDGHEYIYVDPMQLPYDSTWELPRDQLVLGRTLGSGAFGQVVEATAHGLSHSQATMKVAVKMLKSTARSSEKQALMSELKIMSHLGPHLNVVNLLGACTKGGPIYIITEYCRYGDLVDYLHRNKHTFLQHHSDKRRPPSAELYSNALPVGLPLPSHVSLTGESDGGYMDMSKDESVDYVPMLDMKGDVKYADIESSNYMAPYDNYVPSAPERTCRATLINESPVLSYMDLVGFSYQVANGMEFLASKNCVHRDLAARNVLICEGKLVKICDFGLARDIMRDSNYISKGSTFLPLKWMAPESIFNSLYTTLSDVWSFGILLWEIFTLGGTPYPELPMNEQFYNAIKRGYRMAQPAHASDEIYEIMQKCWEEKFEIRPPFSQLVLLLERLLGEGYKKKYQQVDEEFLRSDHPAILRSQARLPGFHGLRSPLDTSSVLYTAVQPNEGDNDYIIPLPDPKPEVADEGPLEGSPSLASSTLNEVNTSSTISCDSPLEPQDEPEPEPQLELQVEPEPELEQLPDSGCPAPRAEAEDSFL
T1 sequence (P09619 554-1106 limits assumed): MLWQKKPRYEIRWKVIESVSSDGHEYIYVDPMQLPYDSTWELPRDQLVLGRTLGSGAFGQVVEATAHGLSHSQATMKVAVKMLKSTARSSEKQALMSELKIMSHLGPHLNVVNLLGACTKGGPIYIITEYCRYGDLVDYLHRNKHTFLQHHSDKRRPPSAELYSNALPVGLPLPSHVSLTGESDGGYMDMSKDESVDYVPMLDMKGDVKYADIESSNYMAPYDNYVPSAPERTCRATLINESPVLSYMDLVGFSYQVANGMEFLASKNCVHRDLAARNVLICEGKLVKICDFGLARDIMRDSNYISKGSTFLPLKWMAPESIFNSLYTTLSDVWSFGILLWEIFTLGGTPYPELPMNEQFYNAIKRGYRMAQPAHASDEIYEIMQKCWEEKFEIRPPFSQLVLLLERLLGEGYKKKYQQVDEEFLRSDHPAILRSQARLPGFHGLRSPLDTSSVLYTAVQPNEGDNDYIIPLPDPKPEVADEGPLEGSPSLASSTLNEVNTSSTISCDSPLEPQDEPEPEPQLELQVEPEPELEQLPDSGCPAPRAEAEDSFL

In the case of `COc1cc2ncnc(Oc3cnn(CC(=O)Nc4ccc5c(c4)OCO5)c3)c2cc1OC` [Example 1, N-(3,4-methylenedioxyphenyl)-2-[4-(6,7-dimethoxyquinazolin-4-yloxy)pyrazol-1-yl]acetamide], the figures for the half-inhibitory concentration (IC50) on PDGFRβ tyrosine kinase, on PDGFRα tyrosine kinase and on KDR tyrosine kinase were about 0.5 nM, about 7 nM and about 30 nM, respectively.

Regarding `COc1cc2ncnc(Oc3cnn(CC(=O)Nc4ccc5c(c4)NCC5)c3)c2cc1OC` [Example 40, N-(6-indolinyl)-2-[4-(6,7-dimethoxyquinazolin-4-yloxy)pyrazol-1-yl]acetamide], the IC50 was about 1 nM on phospho-Tyr751 PDGFRβ and about 2 nM at KDR tyrosine kinase.

For the molecule `Cc1ccc(NC(=O)c2ccc(CN3CCN(C)CC3)cc2)cc1Nc1nccc(-c2cccnc2)n1` [imatinib], the “in vivo growth of dermatofibrosarcoma protruberans cell cultures” value in assay [1] is “inhibits the in vivo growth”. The “growth of glioblastoma tumours” value in assay [2] is “inhibits the growth”. The “inhibition of PDGF receptor kinase activity” value in the assay on PDGF receptor kinase is on record as “inhibit PDGF receptor kinase activity”.
